Source: patent US7186864B2, “Glucocorticoid mimetics, methods of making them, pharmaceutical compositions, and uses thereof” (Boehringer Ingelheim Pharmaceuticals, Inc., priority 2002, dated 2007)

Target: T1, human glucocorticoid receptor (GR) complex (Homo sapiens, UniProt P04150)
T1 construct: made in house; host or cells: insect expression system (baculovirus lysate)
T1 sequence (P04150 1-777): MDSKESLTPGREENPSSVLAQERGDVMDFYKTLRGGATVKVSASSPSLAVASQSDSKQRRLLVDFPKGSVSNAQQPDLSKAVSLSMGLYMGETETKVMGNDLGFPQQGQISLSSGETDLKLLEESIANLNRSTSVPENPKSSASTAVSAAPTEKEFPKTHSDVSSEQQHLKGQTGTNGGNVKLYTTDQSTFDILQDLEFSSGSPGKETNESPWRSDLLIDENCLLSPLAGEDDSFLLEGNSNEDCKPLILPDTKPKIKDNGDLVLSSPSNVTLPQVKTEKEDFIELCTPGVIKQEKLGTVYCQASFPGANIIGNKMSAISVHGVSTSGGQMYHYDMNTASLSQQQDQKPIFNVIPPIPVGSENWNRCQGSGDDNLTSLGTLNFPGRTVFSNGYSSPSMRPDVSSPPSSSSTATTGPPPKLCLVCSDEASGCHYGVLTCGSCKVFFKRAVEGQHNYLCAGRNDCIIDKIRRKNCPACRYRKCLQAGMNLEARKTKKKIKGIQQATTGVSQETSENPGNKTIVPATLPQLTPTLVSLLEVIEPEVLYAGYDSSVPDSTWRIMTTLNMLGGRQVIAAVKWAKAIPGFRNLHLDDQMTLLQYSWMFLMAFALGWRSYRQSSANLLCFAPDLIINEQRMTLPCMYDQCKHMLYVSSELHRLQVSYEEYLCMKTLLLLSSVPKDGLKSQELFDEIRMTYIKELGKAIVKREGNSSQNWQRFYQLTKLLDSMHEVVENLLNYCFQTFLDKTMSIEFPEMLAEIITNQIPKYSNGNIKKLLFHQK
Experiment: Glucocorticoid receptor competitive binding assay (fluorescence polarization, TAMRA-labeled dexamethasone probe)
Details: qualitative statement, values not given
Description: Compounds of the invention were evaluated for binding to the steroid receptor by a fluorescence polarization competitive binding assay. Detailed descriptions for preparation of recombinant glucocorticoid receptor (GR) complex used in the assay is described in Goldrick et al., U.S. provisional application No. 60/291,877, filed May 18, 2001 (corresponding to Goldrick et al., U.S. nonprovisional application No. 10/151,133, filed May 20, 2002) both incorporated herein by reference in their entirety. Preparation of the tetramethyl rhodamine (TAMRA)-labeled dexamethasone probe was accomplished using a standard literature procedure (M. Pons et al., J. Steroid Biochem., 1985, 22, pp. 267–273).
A. Glucocorticoid Receptor Competitive Binding Assay
Step 1. Characterization of the Fluorescent Probe
The wavelengths for maximum excitation and emission of the fluorescent probe should first be measured. An example of such a probe is rhodamine (TAMRA)-labeled dexamethasone.
The affinity of the probe for the steroid receptor was then determined in a titration experiment. The fluorescence polarization value of the probe in assay buffer was measured on an SLM-8100 fluorometer using the excitation and emission maximum values described above. Aliquots of expression vector lysate were added and fluorescence polarization was measured after each addition until no further change in polarization value was observed. Non-linear least squares regression analysis was used to calculate the dissociation constant of the probe from the polarization values obtained for lysate binding to the probe.
Step 2. Screening for Inhibitors of Probe Binding
This assay uses fluorescence polarization (FP) to quantitate the ability of test compounds to compete with tetramethyl rhodamine (TAMRA)-labeled dexamethasone for binding to a human glucocorticoid receptor (GR) complex prepared from an insect expression system. The assay buffer was: 10 mM TES, 50 mM KCl, 20 mM Na2MoO4.2H2O, 1.5 mM EDTA, 0.04% w/v CHAPS, 10% v/v glycerol, 1 mM dithiothreitol, pH 7.4. Test compounds were dissolved to 1 mM in neat DMSO and then further diluted to 10× assay concentration in assay buffer supplemented with 10% v/v DMSO. Test compounds were serially diluted at 10× assay concentrations in 10% DMSO-containing buffer in 96-well polypropylene plates. Binding reaction mixtures were prepared in 96-well black Dynex microtiter plates by sequential addition of the following assay components to each well: 15 μL of 10× test compound solution, 85 μL of GR-containing baculovirus lysate diluted 1:170 in assay buffer, and 50 μL of 15 nM TAMRA-labeled dexamethasone. Positive controls were reaction mixtures containing no test compound; negative controls (blanks) were reaction mixtures containing 0.7 μM to 2 μM dexamethasone. The binding reactions were incubated for 1 hour at room temperature and then read for fluorescence polarization in the LJL Analyst set to 550 nm excitation and 580 nm emission, with the Rhodamine 561 dichroic mirror installed. IC50 values were determined by iterative non-linear curve fitting of the FP signal data to a 4-parameter logistic equation.

activity in the GR binding assay | Compound
demonstrated activity | COc1ccc(F)cc1C(C)(C)CC(N)(Cc1ccc(C#N)cc1Cl)C(F)(F)F (stereo not shown) [Compound 5, 4-[2-Amino-4-(5-fluoro-2-methoxy-phenyl)-4-methyl-2-trifluoromethyl-pentyl]-3-chloro-benzonitrile]
demonstrated activity | COc1ccc(F)cc1C(C)(C)CC(N)(Cc1cc(C(F)(F)F)cc(Cl)c1F)C(F)(F)F (stereo not shown) [Compound 4, 1-(3-Chloro-2-fluoro-5-trifluoromethyl-benzyl)-3-(5-fluoro-2-methoxy-phenyl)-3-methyl-1-trifluoromethyl-butylamine]
demonstrated activity | COc1ccc(F)cc1C(C)(C)CC(N)(Cc1cc(Cl)cc(Cl)c1)C(F)(F)F (stereo not shown) [Compound 2, 1-(3,5-Dichloro-benzyl)-3-(5-fluoro-2-methoxy-phenyl)-3-methyl-1-trifluoromethyl-butylamine]
demonstrated activity | COc1ccc(F)cc1C(C)(C)CC(N)(Cc1ccc(Cl)c(Cl)c1)C(F)(F)F (stereo not shown) [Compound 3, 1-(3,4-Dichloro-benzyl)-3-(5-fluoro-2-methoxy-phenyl)-3-methyl-1-trifluoromethyl-butylamine]

Continued, compound first:

Compound | activity in the GR binding assay
CC(C)(CC(N)(Cc1cc(Cl)cc(Cl)c1)C(F)(F)F)c1cc(F)ccc1O (stereo not shown) [Compound 7, 2-[3-Amino-3-(3,5-dichloro-benzyl)-4,4,4-trifluoro-1,1-dimethyl-butyl]-4-fluoro-phenol] | demonstrated activity
COc1ccc(F)cc1C(C)(C)CC(N)(Cc1cc(C)cc(C)c1)C(F)(F)F (stereo not shown) [Compound 1, 1-(3,5-Dimethyl-benzyl)-3-(5-fluoro-2-methoxy-phenyl)-3-methyl-1-trifluoromethyl-butylamine] | demonstrated activity
Cc1cc(C)cc(CC(N)(CC(C)(C)c2cc(F)ccc2O)C(F)(F)F)c1 (stereo not shown) [Compound 6, 2-[3-Amino-3-(3,5-dimethyl-benzyl)-4,4,4-trifluoro-1,1-dimethyl-butyl]-4-fluoro-phenol] | demonstrated activity
